Experimental data: paper PMC4125160, “Neurotoxicity and Mode of Action of N, N-Diethyl-Meta-Toluamide (DEET)” (PLoS ONE, 2014)
Converted amounts (≈) assume the structure as drawn.

How the values were obtained:
Ae. aegypti = assay: WHO filter paper contact toxicity bioassay; format: in vivo; conditions: Aedes aegypti; WHO filter paper assay, 1 h exposure, mortality at 24 h; read-out: LC50 (95% CI)
A. gambiae (AKRON) = assay: Topical toxicity bioassay on adult females; format: in vivo, Anopheles gambiae
Experimental: (§1) Topical toxicity bioassays on adult female mosquitoes were performed based on the method of Pridgeon et al.. Briefly, insects were chilled on ice for 3 min, during which the appropriate volume (200 nL for mosquitoes, 1 µL for Musca) of chemical (dissolved in 95% ethanol) was applied onto the abdomen using a handheld Hamilton microapplicator. For each inhibitor, five doses were applied to groups of ten insects each and repeated three times. An ethanol-only treatment was included in each experiment as a negative control. Insects were transferred into a holding chamber post-treatment and supplied with free access to sugar water for the duration of the experiment. […] Three LD50 values were obtained and the mean LD50 value was calculated and used for statistical analysis.
(§2) For all toxicity assays, control mortality was corrected for using Abbots formula [19]; where corrected percent mortality = (% alive in control–% alive in treated) /% alive in control.

A. gambiae (G3) = assay: Topical toxicity bioassay on adult females; format: in vivo, Anopheles gambiae; conditions: topical application, ng of compound/mg of mosquito weight, 24 hr
Experimental: as §1, §2

M. domestica = assay: Topical toxicity bioassay; format: in vivo, Musca domestica
Experimental: as §1, §2

acetylcholinesterase = assay: AChE inhibition, Ellman assay, summary statements across enzymes; format: biochemical; conditions: abstract
Excerpt: In vitro biochemical assays utilized five acetylcholinesterase (AChE) enzymes. Recombinant human AChE (hAChE) was purchased from a commercial source (lyophilized powder, Sigma C1682, St. Louis, MO, USA). Homogenates to prepare Anopheles gambiae AChE (AgAChE) were obtained from the wild type G3 strain and the resistant AKRON strain (BEI Resources; http://www.beiresources.org/). AKRON mosquitoes (from Benin and donated by M. Akogbeto) have both knockdown resistance (kdr) to pyrethroids (L1014F sodium channel mutation) and the G119S AChE mutation (ace-1R), which confers resistance to carbamates, [15]. Both strains were cultured in the Emerging Pathogens Institute, University of Florida, Gainesville, FL, USA from eggs provided by the Center for Disease Control, Atlanta, GA, USA. Homogenates were also used to prepare Aedes aegypti AChE (AeAChE) from mosquitoes provided by the CMAVE, USDA-ARS, Gainesville, FL, USA; Musca domestica AChE (MdAChE) from flies cultured in the Department of Entomology and Nematology, Medical Entomology Laboratory, University of Florida, Gainesville, FL, USA); and Drosophila melanogaster AChE (DmAChE) from flies (Oregon-R strain) cultured in the Emerging Pathogens Institute, University of Florida, Gainesville, FL, USA. Homogenate enzymes were prepared from groups of ten non-blood fed adult female mosquitoes, five whole bodied Drosophila, or three Musca heads homogenized in 1 mL of ice-cold sodium phosphate buffer (0.1 M sodium phosphate, pH 7.8) with an electric motor driven glass tissue homogenizer. The homogenate was centrifuged at 5000×g using a Sorvall Fresco refrigerated centrifuge at 4 °C for 5 minutes. […]
Inhibition of AChE was determined using the Ellman assay and was based on the method outlined in Carlier et al.. […] Changes in absorbance were recorded by a DYNEX Triad spectrophotometer (DYNEX Technologies, Chantilly, VA, USA) at 405 nm. Enzyme concentrations used were within the linear range, therefore eliminating the need for protein quantification.

mosquitoes = assay: Toxicity to mosquitoes (abstract summary); format: in vivo
Experimental: as §1

[1] = tested on: housefly larval central nervous system; assay: Neurophysiological recordings of CNS nerve discharge in housefly larvae; conditions: Musca domestica; intact CNS; value (95% CI); read-out: EC50, excitation of nerve firing
[2] = tested on: DmAChE, human AChE and butyrylcholinesterase; set-up: method as in PMID 19656357; conditions: cited from earlier work

What does the source list for `CCN(CC)C(=O)c1cccc(C)c1` [DEET, N, N-diethyl-meta-toluamide]?
LC50 (Ae. aegypti): 2300 mg/L (≈ 12 mM); LD50 (+PBO) (95% CI) (A. gambiae (AKRON); topical application after 4 hr pretreatment with 200 ng PBO): 1247 (872–1526)a ng/ml; LD50 (95% CI) (A. gambiae (AKRON); topical application, ng of compound/mg of mosquito weight, 24 hr): 1472 (1136–1806)b ng/mg; LD50 (95% CI) (A. gambiae (G3)): 1175 (988–1361)a ng/mg; LD50 (95% CI) (M. domestica; topical application, 24 hr): 8104 (7026–9000)c ng/mg; signs of intoxication (M. domestica; toxicologically equivalent doses): mostly lethargic with only occasional bouts of excitation; acetylcholinesterase inhibition (acetylcholinesterase; 10 mM): < 10%; IC50 (acetylcholinesterase; Drosophila melanogaster, Musca domestica, and human acetylcholinesterases): 6 to 12 mM; LD50 (mosquitoes): ca. 1.5 µg/mg; EC50 [1]: 0.21 mM; concentrations showing inhibitory effects [2]: 0.1 to 10 mM
